pEC50, pKi: −log10 of the molar value. Structures can show the parent of a compound that is named as a salt.
Columns and labels:
[1] = biological target: human dopamine D2Long (D2L) receptors (Homo sapiens, UniProt P14416)
[2] = biological target: T1, human dopamine D1 receptor (Homo sapiens, UniProt P21728); experiment: [3H]-SCH-23390 binding to cloned human dopamine D1 receptors (CHO cell membranes); details: competitive binding, [3H]-SCH-23390, cloned human D1 in CHO membranes; read-out: D1 affinity Ki
T1 construct: A 1.4 Kb Hind III to Xho I fragment was subcloned into the vector pMMLV; expressed in transfected cells; host or cells: CHO cells, clone CHO-D1M#9 (plasmid pHD1MMLV), membranes
T1 sequence (P21728 whole entry, the tested form may be a part): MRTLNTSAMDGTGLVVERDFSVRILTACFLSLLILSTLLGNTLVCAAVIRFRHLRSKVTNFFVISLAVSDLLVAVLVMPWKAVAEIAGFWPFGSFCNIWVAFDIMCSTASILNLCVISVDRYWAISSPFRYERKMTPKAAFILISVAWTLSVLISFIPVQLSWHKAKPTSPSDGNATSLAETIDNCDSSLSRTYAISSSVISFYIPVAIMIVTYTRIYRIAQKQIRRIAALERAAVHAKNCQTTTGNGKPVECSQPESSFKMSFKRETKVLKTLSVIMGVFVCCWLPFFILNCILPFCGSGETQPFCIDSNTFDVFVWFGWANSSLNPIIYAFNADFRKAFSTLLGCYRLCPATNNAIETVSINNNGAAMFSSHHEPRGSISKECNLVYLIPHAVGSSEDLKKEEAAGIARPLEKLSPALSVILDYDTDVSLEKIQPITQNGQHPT

[3] = biological target: T2, D1 receptor (Homo sapiens, UniProt P21728); experiment: D1 Activation Adenylyl Cyclase Assay (cAMP FlashPlate, D1 transfected CHO cell line); type: cell-based; details: agonist activity at the D1 receptor, adenylate cyclase assay, D1 transfected CHO cell line; read-out: D1 EC50
T2 construct: expressed in transfected cells; host or cells: D1 transfected CHO cell line
T2 sequence (P21728 whole entry): as the sequence (P21728 whole entry, the tested form may be a part) above
Summary of the method: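 D1-transfected CHO cells (50,000/well) were exposed to compound 1/10 serial dilutions for 8 min at RT; cAMP measured by competitive 125I-cAMP FlashPlate against a standard curve. Response normalised between basal and saturating D1 agonist; EC50 at half-maximal stimulation, plateau reported as % maximal dopamine stimulation.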

human dopamine D2Long (D2L) receptors, sequence (P14416 whole entry): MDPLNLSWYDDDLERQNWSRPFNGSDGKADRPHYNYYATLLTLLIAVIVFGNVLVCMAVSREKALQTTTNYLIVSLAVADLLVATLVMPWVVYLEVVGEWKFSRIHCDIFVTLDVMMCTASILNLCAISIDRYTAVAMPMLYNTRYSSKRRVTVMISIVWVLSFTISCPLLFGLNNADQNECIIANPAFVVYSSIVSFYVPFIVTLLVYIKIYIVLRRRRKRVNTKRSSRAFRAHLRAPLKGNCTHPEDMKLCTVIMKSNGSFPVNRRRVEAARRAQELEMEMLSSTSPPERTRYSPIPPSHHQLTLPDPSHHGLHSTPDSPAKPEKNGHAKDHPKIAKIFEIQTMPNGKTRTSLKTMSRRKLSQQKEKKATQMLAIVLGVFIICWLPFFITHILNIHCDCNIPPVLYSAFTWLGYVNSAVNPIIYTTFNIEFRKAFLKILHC

SMILES	pKi [1]	pKi [2]	pEC50 [3]
Cc1ccc2c(c1O)C[C@@H](C1CCN(CCNC(=O)c3ccccc3)CC1)O[C@H]2CN [Example 191, N-{2-[4-((1R,3S)-1-Aminomethyl-5-hydroxy-6-methylisochroman-3-yl)-piperidin-1-yl]-ethyl}benzamide dihydrobromide]	6.38	6.56	6.74
Cc1ccc2c(c1O)C[C@@H](C1CCN(CCNC(=O)Nc3ccc(F)cc3)CC1)O[C@H]2CN [Example 192, (1R,3S)-1-{2-[4-(1-Aminomethyl-5-hydroxy-6-methyl-isochroman-3-yl)-piperidin-1-yl]ethyl}-3-(4-fluoro-phenyl)urea dihydrobromide]	6.32	7.11	7.96
Cc1ccc2c(c1O)C[C@@H](C1CCN(CCNC(=O)Nc3ccccc3)CC1)O[C@H]2CN [Example 193, 1-{2-[4-((1R,3S)-1-Aminomethyl-5-hydroxy-6-methyl-isochroman-3-yl)piperidin-1-yl]-ethyl}-3-phenylurea dihydrobromide]	6.55	7.30	7.37
CCC(CN1CCC([C@@H]2Cc3c(ccc(C)c3O)[C@H](CNC)O2)CC1)c1ccccc1 (stereo partly drawn) [Example 194, (1R,3S)-6-Methyl-1-methylaminomethyl-3-[1-(2-phenylbutyl)-piperidin-4-yl]isochroman-5-ol dihydrochloride]	6.19	7.27	7.47

These reach a higher pKi [1]. Values come first.

pKi [1]	pKi [2]	pEC50 [3]	SMILES
6.67	6.86	6.09	CCNC[C@@H]1O[C@H](C2CCN(CC(=O)c3ccccc3)CC2)Cc2c1ccc(C)c2O [Example 179, 2-[4-((1R,3S)-1-Ethylaminomethyl-5-hydroxy-6-methyl-isochroman-3-yl)-piperidin-1-yl]-1-phenyl-ethanone]
7.21	6.51	6.57	Cc1ccc2c(c1O)C[C@@H](C1CCN(CCNC(=O)c3ccc(F)cc3)CC1)O[C@H]2CN [Example 189, N-{2-[4-((1R,3S)-1-Aminomethyl-5-hydroxy-6-methylisochroman-3-yl)-piperidin-1-yl]ethyl}-4-fluorobenzamide dihydrobromide]

Source: patent publication US7919508B2, “3-piperidinylisochroman-5-ols as dopamine agonists” (Aventis Pharmaceuticals Inc., priority 2004, dated 2011)
